From patent US9029332B2, “Cross-linked peptides and proteins, methods of making same, and uses thereof” (The Research Foundation for The State University of New York, priority 2010, dated 2015) come the findings set out here.

Numbered stars: 1 amine (or outer) side, 2 acyl side, 3 side chain; on linkers, the order of the positions; unused ones are H or OH. Bridge positions count the residues as written; N and C are the ends. Square brackets hold non-standard residues; d marks the D form. Peptide text beside a SMILES is read from it. CH2(3,3'-bipyridine-6,6')CH2 = c1cc(C[*:1])ncc1-c1ccc(C[*:2])nc1

For data set [1], the system named is HeLa cells. The experiment in a line: FACS analysis of cell permeability of fluorescein-conjugated peptides. To be noted: 10 μM fluorescein-conjugated peptide, 2 h. The data set is classed as cell-based. The method, then:
FACS Analysis. HeLa Cells were cultured in DMEM medium supplemented with 10% fetal bovine serum in 6-well plate in a 37° C., 5% CO2 incubator to reach confluency of around 70%. The cells were then washed twice with PBS before switching to serum-free DMEM medium. After standing in the incubator for 30 minutes, appropriate amounts of peptides (1 mM in DMSO) were added to the culture plate to obtain a final peptide concentration of 10 μM. Cells were incubated at 37° C. for additional 2 hrs. Then the medium was removed and the cells were washed with PBS (3×) followed by treatment with trypsin to detach the cells. After a brief low-speed centrifugation, the HeLa cells were collected and re-suspended in PBS for the FACS analysis.
(In general: Flow cytometry measures light scatter and fluorescence of single cells or particles in a stream.)

Data set [2] deals with HeLa cells. Description: Confocal microscopy of fixed HeLa cells, cellular fluorescence. To be noted: 10 μM fluorescein-conjugated peptide, 2 hours. The data set is classed as cell-based. As for the experimental part: (§1) FIG. 8. (a) Confocal images of fixed HeLa cells after treatment with 10 μM of fluorescein-conjugated peptides for 2 hours. Scale bar=50 μm. (b) Cell viability assay using the CellTiter-Glo reagent.
HeLa Cells were seeded into 35 mm glass bottom microwell dishes (MatTek, Ashland, Mass.) at a density of 3×105 in DMEM medium supplemented with 10% fetal bovine serum, and the cells were allowed to grow in a 37° C. 5% CO2 incubator for 48 hours. After removing medium, the cells were washed twice with PBS and then incubated in serum-free DMEM medium for 30 minutes. Appropriate amounts of peptides (1 mM in DMSO) were then added to obtain a final concentration of 10 μM and cells were incubated at 37° C. for 2 hours. After PBS wash, cells were treated with 4% formaldehyde in PBS for 20 minutes at room temperature. The fixation medium was removed and the cells were washed with PBS (3×) before placing cells into the low florescent mounting medium for fluorescent imaging acquisition.

Data set [3] has as its system HeLa cells. The experiment in a line: Cell viability assay (CellTiter-Glo, ATP) and DIC imaging, cytotoxicity. The data set is classed as cell-based. The following applies: 10 μM, 2 hours; DIC channel and ATP assay. The method, then:
as §1
Cell Viability Assay. HeLa cells were seeded into an opaque 96-well plate at a density of 1×10^4 per well in 100 μL DMEM medium supplemented with 10% FBS and the cells were allowed to grow in a 37° C. 5% CO2 incubator for 48 hrs to reach confluency of around 80%. Prior to the compound treatment, the medium was replaced with serum-free medium and the cells were incubated for 30 minutes. Appropriate amounts of peptides (1 mM in DMSO) were then added to obtain a final concentration of 10 μM and the cells were incubated at 37° C. for 2 hours. Afterwards, the plate was allowed to stand at room temperature for 30 minutes before 100 μL of Cell-Titer Glow reagent (Promega) was added. The plate was incubated at room temperature for 10 minutes. The luminescence signals were recorded with an FLX 800 luminescence plate reader (BioTek). The plotted data represented the average of the readings from 4 separate wells.
(Cellular ATP, detected with luciferase, serves as a proxy for viable cell number.)

Data set [4] concerns the target T1, full-length human MDMX (GST-MDMX) (Homo sapiens, UniProt O15151).
T1 construct: GST-MDM2 and GST-MDMX containing full-length human MDM2 and MDMX; made in house; host or cells: Escherichia coli
T1 sequence (O15151 1-490): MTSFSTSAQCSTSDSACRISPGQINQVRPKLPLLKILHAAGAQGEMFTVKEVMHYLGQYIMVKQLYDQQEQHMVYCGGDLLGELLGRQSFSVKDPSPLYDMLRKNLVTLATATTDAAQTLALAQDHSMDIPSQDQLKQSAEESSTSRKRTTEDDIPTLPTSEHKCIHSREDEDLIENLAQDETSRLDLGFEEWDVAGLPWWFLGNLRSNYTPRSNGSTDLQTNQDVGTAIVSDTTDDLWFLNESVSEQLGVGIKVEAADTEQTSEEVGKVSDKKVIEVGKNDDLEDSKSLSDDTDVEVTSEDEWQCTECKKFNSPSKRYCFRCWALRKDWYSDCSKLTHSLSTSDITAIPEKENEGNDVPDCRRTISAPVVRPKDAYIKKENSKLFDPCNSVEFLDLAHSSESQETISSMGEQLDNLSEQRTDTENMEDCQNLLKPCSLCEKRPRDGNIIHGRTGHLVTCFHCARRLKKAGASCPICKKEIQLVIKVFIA
Description: ELISA, inhibition of p53-MDMX interaction. To be noted: relative to linear counterpart 3. In kind it is binding. From the text: FIG. 10. ELISA data of the cross-linked PDI analogs. The experiments were repeated three times and the resulting data were plotted with GraphPad Prism 5.0 to derive the average IC50 values along with standard deviations.
ELISA Assay. GST-MDM2 and GST-MDMX containing full-length human MDM2 and MDMX and His6-tagged human p53 were expressed in Escherichia coli and purified by glutathione agarose and Ni^2+-nitrilotriacetic acid beads, respectively, under non-denaturing conditions. Microtiter plates were coated with 2.5 μg/ml His6-p53 in PBS buffer for 16 hours. After washing with PBS containing 0.1% Tween-20 (PBST), the plates were blocked with PBST containing 5% nonfat dry milk (PBSTM) for 30 minutes. Peptides were dissolved in DMSO. GST-MDM2 and MDMX (5 μg/ml) were mixed with peptides in PBSMT containing 10% glycerol and 10 mM dithiolthreitol prior to their additions to the wells at the specified concentrations. The incubation was allowed to proceed for 1 hour at room temperature before the plates were washed with PBST. […] The plates were developed by incubation with TMB peroxidase substrate (KPL, Gaithersburg, Md.) and measured by absorbance at 450 nm. The data was analyzed with the Origin 6.0 software. […]
For orientation: In an ELISA, binding on a coated surface is turned into a signal by an enzyme label.

Data set [5] is described as follows: Circular dichroism, percent helicity. The data set is classed as physicochemical. The following applies: compared to the linear NoxaBH3 peptide, 50 μM in 20% ACN/H2O. The method, then: FIG. 12. […] The peptides were dissolved in 20% ACN/H2O for a final concentration of 50 μM.
Circular Dichroism Study. […] The spectra were recorded in the wavelength range of 190-250 nm and averaged over 3 scans with a resolution of 0.5 nm, a bandwidth of 1.0 nm and a response time of 4 s. The sensitivity and the speed of the spectrometer were set to 100 mdeg and 50 nm/min, respectively. All peptides were dissolved in 20% acetonitrile/H2O to reach final concentration of 50 μM.

In data set [6] the target is GST-Mcl-1 (Homo sapiens, UniProt Q07820). Description: Competitive fluorescence polarization assay. In kind it is binding. As for the experimental part: Competitive Florescence Polarization Assay. The binding affinity of the Noxa peptides toward GST-Mcl-1 was determined in a competitive fluorescence polarization assay with the fluorescein-labeled Bak or Bim. Briefly, fluorescein-labeled Bak was incubated with GST-Mcl-1 in a binding buffer (PBS, 0.005% Tween-20, pH7.4) at room temperature in a 96-well microtiter plate. […] The reading was repeated at various time points to ensure that the competition has reached equilibrium.
GST-Mcl-1, sequence (Q07820 whole entry): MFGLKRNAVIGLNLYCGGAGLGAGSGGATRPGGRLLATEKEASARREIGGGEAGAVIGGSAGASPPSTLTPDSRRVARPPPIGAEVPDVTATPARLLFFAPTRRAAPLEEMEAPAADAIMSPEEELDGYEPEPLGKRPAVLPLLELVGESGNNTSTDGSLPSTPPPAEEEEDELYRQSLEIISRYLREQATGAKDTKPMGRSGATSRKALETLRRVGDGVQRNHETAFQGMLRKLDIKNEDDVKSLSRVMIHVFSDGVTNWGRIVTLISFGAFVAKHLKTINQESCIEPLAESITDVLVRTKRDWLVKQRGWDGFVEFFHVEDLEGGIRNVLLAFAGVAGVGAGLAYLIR

Data set [7] addresses Mcl-1 (Homo sapiens, UniProt Q07820). The experiment in a line: ELISA of cross-linked Noxa peptides. The data set is classed as binding.
The test system of data set [8] is HeLa cells. The experiment in a line: Cellular uptake of fluorescein-labeled Noxa peptides by FACS and fluorescence microscopy. In kind it is cell-based. To be noted: 10 μM fluorescein-labeled peptide, 2 hours. The method, then: FIG. 13. […] (a) Flow cytometry analysis of cell permeability of the FITC-labeled linear or stapled peptide. HeLa cells were treated with 10 μM of fluorescein-labeled peptides in serum-free DMEM medium for 2 hours followed by fixation with formaldehyde. (b) Fluorescent micrographs of HeLa cells treated with 10 μM of fluorescein-labeled (Fl) linear or cross-linked NoxaBH3 peptide. Scale bar=50 μm.
To investigate cellular uptake of the cross-linked peptides, the N-terminal fluorescein-labeled cross-linked NoxaBH3 peptides (5a, 6a, 7a, 8a) and linear peptide Fl-Noxa-(75-93)-C75A were prepared and their uptakes into HeLa cells were examined by both FACS and fluorescence microscopy. […] To examine whether the cross-linked peptides induce apoptosis, Mcl-1-overexpressing Raji cells and K562 cells co-transfected with Mcl-1/BimEL were treated with the cross-linked peptides and the cell viabilities were measured by CellTiter-Glo reagent. […] For the remaining peptides, the following SEQ ID NOs apply: peptide 9a and 10A are SEQ ID NO:17; 11a and 12 a are SEQ ID NO:18; 5c, 5d, 5e, Fluo-5a, Fluo-6a, and Fluo-6b are SEQ ID NO:16; Fluo-NoxaB^75-94-C75A is SEQ ID NO:15; and Fluo-71 is SEQ ID NO:17.

By IC50 is commonly meant the concentration that gives 50% inhibition.

Mcl-1, sequence (Q07820 whole entry, species assumed): as the sequence (Q07820 whole entry) above

`CC(=O)N[C@@H](CC(C)C)C(=O)N[C@H](C(=O)N[C@@H](Cc1ccccc1)C(=O)N[C@H]1CSCc2ccc(cn2)-c2ccc(nc2)CSC[C@@H](C(=O)N[C@@H](CO)C(N)=O)NC(=O)[C@H](CC(C)C)NC(=O)[C@H](CCCNC(=N)N)NC(=O)[C@H](C)NC(=O)[C@H](Cc2c[nH]c3ccccc23)NC(=O)[C@H](Cc2ccc(O)cc2)NC(=O)[C@H](CCCNC(=N)N)NC1=O)[C@@H](C)O` [Peptide 2b, LTFC″RYWARLC″S] (Ac-LTFCRYWARLCS-NH2; linker 4-11 via CH2(3,3'-bipyridine-6,6')CH2): in data set [1] (compared to charge-neutral counterpart), the “increase in mean fluorescence / permeability by arginine substitution” value is on record as 2 fold. For the same molecule, in data set [1] (over linear counterpart), the “increase in mean fluorescence by Bpy cross-linking” value is around 5 fold. The “cellular fluorescence, FITC channel” value in data set [2] is given as “strongest cellular fluorescence”. Moreover, in data set [3], the cytotoxicity result is “apparent cytotoxicity”.

Take `CC(=O)N[C@@H](CC(C)C)C(=O)N[C@H](C(=O)N[C@@H](Cc1ccccc1)C(=O)N[C@@H]1CSCc2ccc(cn2)-c2ccc(nc2)CSC[C@@H](C(=O)N[C@@H](CO)C(N)=O)NC(=O)[C@H](CC(C)C)NC(=O)[C@H](CCC(N)=O)NC(=O)[C@H](C)NC(=O)[C@H](Cc2c[nH]c3ccccc23)NC(=O)[C@H](Cc2ccc(O)cc2)NC(=O)[C@H](Cc2c[nH]cn2)NC1=O)[C@@H](C)O` [Peptide 3b, LTFc″HYWAQLC″S] (Ac-LTF[dC]HYWAQLCS-NH2; linker 4-11 via CH2(3,3'-bipyridine-6,6')CH2): the “increase in MDMX activity” value in data set [4] stood at 24 fold. Besides, in data set [3], the cytotoxicity result was “did not show any cytotoxicity”.

`CC(=O)N[C@@H](CC(C)C)C(=O)N[C@H](C(=O)N[C@@H](Cc1ccccc1)C(=O)N[C@@H]1CSCc2ccc(cn2)-c2ccc(nc2)CSC[C@@H](C(=O)N[C@@H](CO)C(N)=O)NC(=O)[C@H](CC(C)C)NC(=O)[C@H](CCCNC(=N)N)NC(=O)[C@H](C)NC(=O)[C@H](Cc2c[nH]c3ccccc23)NC(=O)[C@H](Cc2ccc(O)cc2)NC(=O)[C@H](CCCNC(=N)N)NC1=O)[C@@H](C)O` [Peptide 4b, LTFc″RYWARLC″S] (Ac-LTF[dC]RYWARLCS-NH2; linker 4-11 via CH2(3,3'-bipyridine-6,6')CH2; C-terminus assumed): the “cellular fluorescence, FITC channel” value in data set [2] is given as “strongest cellular fluorescence”. In addition, in data set [3], the cytotoxicity entry is on record as “apparent cytotoxicity”.

With `CC[C@H](C)[C@@H]1NC(=O)[C@H](CCCNC(=N)N)NC(=O)[C@H](CCCNC(=N)N)NC(=O)[C@H](CC(C)C)NC(=O)[C@H](NC(=O)[C@H](C)NC(=O)[C@H](C)NC(C)=O)CSCc2ccc(cc2)-c2ccc(cc2)CSC[C@@H](C(=O)N[C@H](C(=O)N[C@@H](CC(N)=O)C(=O)N[C@@H](CC(C)C)C(=O)N[C@@H](CCCNC(=N)N)C(=O)N[C@@H](CCC(N)=O)C(=O)N[C@@H](CCCCN)C(=O)N[C@@H](CC(C)C)C(=O)N[C@@H](CC(C)C)C(=O)N[C@@H](CC(N)=O)C(N)=O)C(C)C)NC(=O)[C@H](CC(=O)O)NC(=O)CNC1=O` [Peptide 6a], the “enhancement in percent helicity” value in data set [5] is recorded as “roughly 2 fold”. Moreover, the IC50 in data set [6] (Noxa peptides, three repeats ± SD, read-out: FP, IC50) came to 73 ± 18 nM; in data set [7], 260 nM. Besides, in data set [6] (compared to the parent linear peptide), the “increase in activity in FPA” value was found to be 37 fold. Moreover, in data set [8], the cellular uptake entry is “robust uptakes”.

In the case of `CC[C@H](C)[C@@H]1NC(=O)[C@H](CCCNC(=N)N)NC(=O)[C@H](CCCNC(=N)N)NC(=O)[C@H](CC(C)C)NC(=O)[C@@](C)(NC(=O)[C@H](C)NC(=O)[C@H](C)NC(C)=O)CSCc2ccc(cc2)-c2ccc(cc2)CSC[C@@](C)(C(=O)N[C@H](C(=O)N[C@@H](CC(N)=O)C(=O)N[C@@H](CC(C)C)C(=O)N[C@@H](CCCNC(=N)N)C(=O)N[C@@H](CCC(N)=O)C(=O)N[C@@H](CCCCN)C(=O)N[C@@H](CC(C)C)C(=O)N[C@@H](CC(C)C)C(=O)N[C@@H](CC(N)=O)C(N)=O)C(C)C)NC(=O)[C@H](CC(=O)O)NC(=O)CNC1=O` [Peptide 8a], the “enhancement in percent helicity” value in data set [5] was around 3 fold. The cellular uptake result in data set [8] was “robust uptakes”.
